Consider seven molecules from PMC5730616, “Inhibition of human kynurenine aminotransferase isozymes by estrogen and its derivatives” (Scientific Reports, 2017).

Test [1] has as its target T1, KAT-II (Homo sapiens, UniProt Q8N5Z0).
T1 construct: made in house
Also on record: method as in PMID 27367665. To be noted: previously measured; cited from earlier work.

Test [2] addresses T1, KAT-II. Details: method as in PMID 27367665. To be noted: SPR, chi^2 0.34; cited from earlier work. Background: In SPR one partner is held on a chip, and binding of the other changes the refractive index at the surface.
Another test has as its target T2, human KAT-I (Homo sapiens, UniProt Q16773).
T2 sequence (Q16773 1-422): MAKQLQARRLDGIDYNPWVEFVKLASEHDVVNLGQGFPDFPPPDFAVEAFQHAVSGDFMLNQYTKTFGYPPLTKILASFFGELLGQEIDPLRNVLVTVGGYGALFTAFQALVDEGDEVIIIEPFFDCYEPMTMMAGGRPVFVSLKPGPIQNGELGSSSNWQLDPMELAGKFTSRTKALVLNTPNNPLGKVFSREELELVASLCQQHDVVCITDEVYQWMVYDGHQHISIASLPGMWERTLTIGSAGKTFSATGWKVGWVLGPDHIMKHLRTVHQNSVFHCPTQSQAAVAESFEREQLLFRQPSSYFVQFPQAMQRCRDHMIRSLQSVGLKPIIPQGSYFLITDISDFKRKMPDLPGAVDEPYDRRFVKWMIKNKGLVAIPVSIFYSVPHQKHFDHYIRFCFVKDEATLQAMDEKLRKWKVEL
Nature of the test: HPLC inhibition assay on recombinant human KAT-I (KYNA production). The test is classed as biochemical.

For test [3], the target named is T1, KAT-II. As to the kind of experiment: HPLC inhibition assay on recombinant human KAT-II (KYNA production). The format is biochemical. On the procedure:
GraphPad Prism v7.02 software[59] was used to develop a nonlinear regression fit of the data collected in the inhibition assays. The IC50 is reported with the standard error.
The expression and purification of recombinant KAT-I and KAT-II protein was completed as previously described[60],[61].
The KAT inhibition assay was based on that described previously. […] Following incubation, the reaction was terminated by adding formic acid (0.8 M) in a 1:1 ratio. 50 µL of the mixture was transferred into a vial with 950 µL of water for HPLC analysis.
The production of KYNA was measured using HPLC with UV detection at a wavelength of 330 nm, using a C18 reverse-phase column, and 50% (v/v) water and 50% (v/v) methanol mobile phase. The data was collected in triplicate.

Test [4] concerns the target T1, KAT-II. Nature of the test: Surface plasmon resonance binding assay, steady state affinity model. To be noted: KAT-II on CM5 chip, 25 °C, chi^2 0.481. On the procedure: SPR was employed to evaluate the binding profile of estradiol disulfate on KAT-II. KAT-II was bound to a CM5 chip by amine coupling (achieving approximately 8000 RU). […] Due to the nature of this interaction, kinetic analyses could not be performed to directly evaluate the association and dissociation rate constants.
SPR binding affinity measurements were performed using the Biacore T200 with a CM5 sensor chip (GE Healthcare Life Sciences, Sydney, Australia). The experiment was prepared and obtained with the Biacore T200 Control Software, and analysed with the Biacore T200 Evaluation Software.
Prior to performing the SPR experiments, the solutions were filter sterilised for 10 min at 25 °C. KAT-II was diluted to a concentration of 350 µg/mL using sodium acetate (pH 4.5). The Biacore T200 compartment temperature was controlled at 25 °C and the flow rate was set to 10 µL/min. Using a 1:1 mixture of EDC (400 mM) and sulfo-NHS (100 mM), two flow cells on a CM5 sensor chip (containing a carboxymethylated dextran surface) were activated. Flow cell one contained a blank immobilisation (PBST buffer injection) and flow cell two had the prepared KAT-II sample injected. The two flow cells were deactivated using an injection of 1 M ethanolamine.
The analyte, estradiol disulfate, was prepared in running buffer (PBST with 5% DMSO) in a concentration series from 170 nM-43750 nM. […]

[5] abbreviates: recombinant human KAT-I, inhibitor 1–2000 µM, read-out: IC50 on KAT-I.
The mark [6] stands for this setting: recombinant human KAT-II, inhibitor 1–2000 µM, read-out: IC50 on KAT-II.

Where “and” joins values, the source holds several entries; their conditions need not be identical. Equal values may be shown once. Where a name gives a salt, the structure may show the parent alone. Read-outs that look alike come from different tables or passages of the source. A value given as a limit tells only on which side of the number the result lay.

T1 sequence (Q8N5Z0 30-425): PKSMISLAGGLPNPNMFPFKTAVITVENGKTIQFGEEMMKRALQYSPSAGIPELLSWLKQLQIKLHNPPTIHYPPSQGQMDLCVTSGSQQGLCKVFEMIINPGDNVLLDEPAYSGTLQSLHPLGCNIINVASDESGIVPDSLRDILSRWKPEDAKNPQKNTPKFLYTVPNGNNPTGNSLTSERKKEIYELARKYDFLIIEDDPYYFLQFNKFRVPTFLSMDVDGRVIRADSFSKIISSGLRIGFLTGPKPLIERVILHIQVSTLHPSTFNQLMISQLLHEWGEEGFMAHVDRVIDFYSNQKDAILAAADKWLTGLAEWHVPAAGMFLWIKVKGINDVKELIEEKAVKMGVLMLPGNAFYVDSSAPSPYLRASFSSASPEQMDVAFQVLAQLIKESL

A word on the IC50: it is the midpoint of a concentration-inhibition curve. For the molecule `CC1COc2c(N3CCN(N)CC3)c(F)cc3c(=O)c(C(=O)O)cn1c23` (stereo not drawn) [BFF-122], on KAT-II [1], the IC50 was 15 to 20 µM.

As usually defined, the Kd is the constant that tells how readily two partners part at equilibrium. In the case of `O=C(O)C(Cc1ccccc1)N1C(=O)c2cc(Cl)c(Cl)cc2C1=O` (stereo not drawn) [NS-1502], the IC50 at KAT-II [1] is 315 µM. The dissociation constant (Kd) on KAT-II [2] was 7.2 µM.

`NC1Cc2ccccc2N(O)C1=O` (stereo not drawn) [PF-04859989, reference compound]: the IC50 on KAT-II [1] is 1 to 3 µM.

Regarding `C[C@]12CCC3c4ccc(OS(=O)(=O)O)cc4CCC3C1CC[C@@H]2O` (stereo partly drawn) [estradiol 3-sulfate, estradiol 3-sulfate sodium salt], the IC50 on human KAT-I (setting [5]) and at KAT-II [3] (setting [6]) was above 2 mM each time.

In the case of `C[C@]12CC[C@@H]3c4ccc(OS(=O)(=O)O)cc4CC[C@H]3[C@@H]1CC[C@@H]2OS(=O)(=O)O` [estradiol disulfate, estradiol 3,17-disulfate dipotassium salt], the IC50 on human KAT-I (recombinant human KAT-I, PLP 50 µM, L-KYN 5 mM, 37 °C 10 min, ± standard error, read-out: IC50 on KAT-I) turned out to be 0.292 mM; at KAT-II [3] (recombinant human KAT-II, PLP 50 µM, L-KYN 5 mM, 37 °C 10 min, ± standard error, read-out: IC50 on KAT-II), 0.0263 mM. Also, the “Increase of inhibition compared to estradiol” value at KAT-II [3] (KAT-I and KAT-II inhibition assays, attributed to the 17-sulfate moiety) is listed as 10–100 fold. Besides, the “Reversibility of KAT-II inhibition” value at KAT-II [3] (shown by varying PLP concentration in the reaction mixture) is recorded as “reversible”. In addition, the affinity at KAT-II [4], expressed as Kd, was 5.05 µM.

In the case of `C[C@]12CC[C@@H]3c4ccc(O)cc4CC[C@H]3[C@@H]1CC[C@@H]2O` [estradiol, reference compound], the IC50 on human KAT-I and on KAT-II [3] was above 2 mM throughout.

With `C[C@]12CCC3c4ccc(OS(=O)(=O)O)cc4CCC3C1CCC2=O` (stereo partly drawn) [estrone sulfate, estrone sulfate potassium salt], the IC50 on human KAT-I (setting [5]) is above 2 mM; at KAT-II [3] (setting [6]), > 2 mM and ~2 mM.
